Laboratory results reported in patent US20220155322A1, “USE OF NATRIURETIC PEPTIDES TO ASSESS AND TREAT ACUTE KIDNEY INJURY” (Mayo Foundation for Medical Education and Research, priority 2019, published 2022).
Positions of bridges follow the written chain, without caps; N, C: chain ends. Residues, ends and D or L forms follow the SMILES beside them.

Assays:
[1] = test system: AKI canine kidneys (renal cortex); test: Renal injury ex vivo analysis (H&E histology and TUNEL); type: in vivo; details: AKI canine kidney cortex, compared to vehicle
Procedure: Histology and TUNEL Analysis: Fixed renal tissues were embedded in paraffin. For histology analysis, paraffin-embedded slides in vehicle (n=5) and CRRL269 (n=5) were stained with hematoxylin and eosin (H&E). A renal pathologist who was blinded to the study examined the H&E stained slides. Renal morphologic injuries such as tubular dilation and vacuolization were evaluated. Renal cortical apoptosis in vehicle (n=5) and CRRL269 (n=5) treated dogs were assessed using a TUNEL assay (Promega; Madison, Wis.) followed the protocol provided by the manufacturer. […] DAPI (Vectashield, Vector Laboratories; Burlingame, Calif.) was used to label the nucleus. TUNEL results were analyzed by confocal fluorescence microscopy (Nikon A50R; Melville, N.Y.).

[2] = test system: ischemic AKI model in normal mongrel canines; test: Ischemic AKI in canines: hormonal and renal function; type: in vivo, canine
[3] = test system: ischemic AKI model in normal mongrel canines; test: CNP levels (RIA) and renal NPPC mRNA (RT-PCR) in canine AKI; type: in vivo
[4] = test system: human primary renal proximal tubular epithelial cells (HRPTC); test: Oil immersion induced hypoxia/reoxygenation (H/R) apoptosis, Caspase 3/7 IncuCyte live imaging; type: cell-based; set-up: apoptotic signals in HRPTC after H/R: dose or concentration left out as unconfirmed
Procedure: Oil Immersion Induced Hypoxia/Reoxygenation in vitro: HRPTC (ScienCell Research Laboratories; Carlsbad, Calif.) were seeded in 96-well plates and cultured for 1 day until 70-80% confluence. Passages 3-5 were used for experiments. Caspase 3/7 green apoptosis assay agent (Essen BioScience; Ann Arbor, Mich.) was added to the culture medium for detection of apoptosis. Plates were then transferred to a time-lapsed, live imaging system IncuCyte (Essen BioScience) for apoptosis monitoring for a total of 24 hours. H/R in cells was mimicked with mineral oil (Sigma, St Louis, Mo.) immersion (Meldrum et al., J Surg Res, 99:288-293, 2001). Cells were immersed in oil for 2 hours, washed twice, and placed in fresh medium containing vehicle (H/R group) or drugs. ANP, BNP, and CRRL269 were used at concentrations of 10^−8, 10^−7, or 10^−6 M. PKG (an important cGMP binding protein) activating analogue 8-pCPT-cGMP (Sigma; St. Louis, Mo.), which is specific for PKG and has low affinity for phosphodiesterases, was used at concentrations of 10^−6, 10^−5, or 10^−4 M. Cells were treated with 10^−6-, 5×10^−6-, or 1.5×10^−5 M PKG inhibitor KT-5823 (Abcam; Cambridge, Mass.) for 30 minutes before 10^−6 M CRRL269 was added. Cells without H/R stimulation were labeled as the negative control (Neg Ctrl) group. Apoptosis signals (e.g., apoptosis object counts) were analyzed with software provided by IncuCyte.

[5] = test system: human primary aortic vascular smooth muscle cells (HASMC); test: Intracellular calcium under ANGII stimulation (Fura-2); type: cell-based
Procedure: Measurements of Intracellular Calcium in Vascular Smooth Muscle Cells: HASMC (ScienCell Research Laboratories; Carlsbad, Calif.) were cultured and maintained as instructed by the manufacturer. Cells at passage 4 or 5 were used for experiments. Calcium imaging was performed as described elsewhere (Chai et al., Cardiovasc Res, 100:151-159, 2013). Briefly, cells were seeded on a 25 mm round cover glass (Fisher Scientific; Pittsburgh, Pa.) at a density of 5×10^4 cells per slide. The slides had been pretreated with 0.5 N NaOH for 8 hours, rinsed with water, and sterilized before use. After overnight culturing, the slides with cells were assembled in a MS-02 Chamber (ALA Scientific Instrument; Farmingdale, N.Y.) and loaded with 3 μM fura-2 AM (Invitrogen; Carlsbad, Calif.) for 30 minutes in a 37° C. incubator. The chamber was then placed on the stage of an inverted Olympus IX71 microscope (Olympus America Inc.; Waltham, Mass.). The cells were maintained in 1 mL HASMC medium and treated with or without ANP, BNP, or CRRL269 at concentration of 10^−9 or 10^−7 M for 5 minutes before perfused with 5 mL medium containing ANGII (10^−8 or 10^−7 M). Intracellular Ca2^+ fluorescence signals were measured as a ratio of fluorescence intensities at 510 nm from excitations of 340/380 nm, using a Hamamatsu ORCA-R2 CCD camera with a Sutter LB-LS/17 light source. Baseline fluorescence was recorded after 5 minutes of treatment, and fluorescence images were acquired continuously during the ANGII perfusion. Background fluorescence was subtracted and the calcium signal (F) was normalized to baseline fluorescence (FO) and expressed as a ratio (F/FO) using MetaFluor software (Olympus America Inc.).

[6] = test system: apoptosis pathway genes in HRPTC; test: Apoptosis pathway PCR array in H/R HRPTC; type: cell-based, human
Procedure: Apoptosis Pathway PCR Array and Caspase7 Real Time PCR: Two groups of HRPTC (vehicle and 10^−6 M CRRL269) that underwent oil induced H/R, and a negative control (Neg Ctrl) group with no H/R stress, were cultured in 6-well plates as described above, and total RNA was collected using the Trizol method (Thermo Fisher Scientific; Waltham, Mass.). RNA was reverse transcribed for cDNA for PCR RT2 array experiments. Apoptosis pathway PCR array (Qiagen; Germantown, Md.) was conducted using the SYBR green (Bio-Rad Laboratories; Hercules, Calif.) method in a Lightcycler 480 (Roche Diagonostics; Indianapolis, Ind.). Raw data were analyzed with the online Qiagen RT2 PCR analysis program. […] A Caspase7 RT-PCR primer (PPH00110C-200, Qiagen) was obtained, and RT-PCR reactions were performed using the SYBR green method in a Lightcycler 480. The B2M gene (primer PPH01094E, Qiagen) was used for normalization.

[7] = 16.3 pmol/kg/min infusion for 2 hours after ACC, vs vehicle
[8] = 16.3 pmol/kg/min, compared to vehicle
[9] = postischemia phases, 16.3 pmol/kg/min, vs vehicle
[10] = HRPTC, H/R, 10^−8, 10^−7 or 10^−6 M

CC[C@H](C)[C@@H]1NC(=O)[C@H](CCCNC(=N)N)NC(=O)[C@H](CC(=O)O)NC(=O)[C@H](CCSC)NC(=O)[C@H](CCCCN)NC(=O)[C@H](CCCNC(=N)N)NC(=O)CNC(=O)[C@H](Cc2ccccc2)NC(=O)[C@@H](NC(=O)[C@H](CO)NC(=O)[C@H](CO)NC(=O)[C@H](CCCNC(=N)N)NC(=O)[C@H](CCCNC(=N)N)NC(=O)[C@H](CC(C)C)NC(=O)[C@H](CO)NC(=O)[C@H](CCCNC(=N)N)NC(=O)[C@@H]2CCCN2C(=O)[C@H](C)NC(=O)[C@@H](N)[C@@H](C)O)CSSC[C@@H](C(=O)N[C@@H](CC(N)=O)C(=O)N[C@@H](CO)C(=O)N[C@@H](Cc2ccccc2)C(=O)N[C@@H](CCCNC(=N)N)C(=O)N[C@@H](Cc2ccc(O)cc2)C(=O)O)NC(=O)CNC(=O)[C@H](CC(C)C)NC(=O)CNC(=O)[C@H](CO)NC(=O)[C@H](CO)NC(=O)[C@H](CO)NC(=O)[C@H](CO)NC1=O [CRRL269] (H-TAPRSLRRSSCFGRKMDRISSSSGLGCNSFRY-OH; disulfide 11-27)
renal cortex vacuolization (H&E staining) [1]: less vacuolization compared to vehicle | renal cortical apoptosis (TUNEL assay) [1]: reduced apoptosis | plasma cGMP levels [2, 7]: increased | urinary cGMP levels [2, 7]: increased | renal parenchyma cGMP levels ([2]; 16.3 pmol/kg/min infusion for 2 hours, ex vivo cortex and medulla): increased | urinary sodium excretion (UNaV), natriuresis [2, 8]: significantly induced | urine output (UV), diuresis [2, 8]: significantly induced | plasma (circulating) ANGII levels ([2]; post-ischemia CL1 to CL4, 16.3 pmol/kg/min, vs vehicle): significantly reduced | glomerular filtration rate (GFR) [2, 9]: maintained | renal blood flow (RBF) [2, 9]: maintained | cortical NPPC gene expression levels (RT-PCR) ([3]; AKI canine renal cortex, normalized to GAPDH, vs vehicle): elevated | urinary CNP levels ([3]; AKI canines, 16.3 pmol/kg/min infusion, compared to vehicle): increased | apoptotic signals in HRPTC after H/R ([4]; CRRL269, compared to H/R group alone): significantly reduced | anti-apoptotic effect compared to ANP [4, 10]: more robust anti-apototic effects compared to ANP | anti-apoptotic effect in comparison with BNP [4, 10]: trend of superiority | Ca2^+ suppression relative to ANP and BNP ([5]; HASMC, pretreatment at 10^−9 or 10^−7 M, ANGII stimulation): less Ca2^+ suppression than ANP and BNP | Ca2^+ enhancement by ANGII in HASMC ([5]; pretreatment at 10^−9 or 10^−7 M for 5 minutes, ANGII 10^−8 or 10^−7 M): suppressed | Caspase7 gene down-regulation in PCR array ([6]; 10^−6 M CRRL269): at least two-fold | number of apoptosis pathway genes down-regulated at least 2 fold ([6]; 10^−6 M CRRL269, 84-gene array): 8 out of 84
